Data published in patent US20090215841A1, “D2 Receptor Ligand-078” (ASTRAZENECA AB, priority 2008, published 2009).

Columns and labels:
[1] = tested on: D-amphetamine hyperlocomotion in habituated rats; assay: D-amphetamine-induced hyperlocomotor activity (LMA) in habituated rat model; details: in vivo, sc, 1 mg/kg
Protocol: LMA was assessed in male Long Evans rats using a paradigm that included a habituation phase followed by administration of 1 mg/kg D-amphetamine. Animals were allowed to acclimatize to the testing room for 1 hour before being weighed and placed into activity chambers. Thirty minutes after LMA measurements began, animals were briefly removed, subcutaneously dosed with vehicle or test drug at different doses (μmol/kg), and returned to the chambers. After 30 minutes, animals were again removed and dosed with vehicle or D-amphetamine at 1 mg/kg (s.c.). After returning animals to the activity chambers, LMA was assessed for 60 minutes. […] Statistical analysis was made of total distance traveled after D-amphetamine administration using ANOVA and Tukey's post hoc analysis where appropriate. All values are expressed as Mean and SD.

D2S receptor = D2S receptor (Homo sapiens, UniProt P14416); assay: D2 receptor binding assay ([3H]-raclopride displacement)
Protocol: The ability of test compounds to displace ^3H-raclopride at the D2S receptor was determined on membranes from D2s-transfected CHO cells (Bmax 13 pmol/mg protein). An assay uses a standard 96-well glass fiber filter plate to retain radioligand bound by the receptor. Retained ^3H is determined in a TopCount scintillation plate counter following the addition of a liquid scintillant to each well. Compounds are evaluated for their potency using competition curve analysis, resulting in calculated Ki values.

CF-1 male mice = assay: Catalepsy assay, mice; assay type: in vivo, mouse
Protocol: (§1) CF-1 male mice or Sprague Dawley rats are dosed (via i.p., p.o. or s.c. route) with a test compound at given concentrations or a vehicle. […] The length of time (in seconds) during which each mouse maintains the initial forepaw bar position is recorded (cataleptic pose). Maximum cut-off observation time is 60 seconds. Results are expressed as means (in sec) for each dose group.

[2] = molecular target: D2s receptor (membranes from D2s stably-transfected CHO cells) (Homo sapiens, UniProt P14416); assay: GTPγS assay, block of dopamine-stimulated [35S]-GTPγS binding
Sequence of D2s receptor (membranes from D2s stably-transfected CHO cells) (P14416 1-414 isoform P14416-2): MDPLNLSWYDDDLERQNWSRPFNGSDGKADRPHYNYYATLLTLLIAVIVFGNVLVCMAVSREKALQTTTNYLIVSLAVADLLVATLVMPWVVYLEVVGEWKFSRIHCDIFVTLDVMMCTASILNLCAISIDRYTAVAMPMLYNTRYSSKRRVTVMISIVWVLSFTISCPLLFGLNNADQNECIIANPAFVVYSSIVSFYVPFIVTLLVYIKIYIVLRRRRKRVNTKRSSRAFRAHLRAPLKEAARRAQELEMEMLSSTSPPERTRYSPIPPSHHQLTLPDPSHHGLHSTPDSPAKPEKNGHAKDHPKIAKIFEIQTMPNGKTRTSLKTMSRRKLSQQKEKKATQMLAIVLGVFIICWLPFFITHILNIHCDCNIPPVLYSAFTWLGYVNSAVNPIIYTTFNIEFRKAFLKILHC
Protocol: GTPγS assay was performed substantially as described by Lazareno. […] Antagonist activity of compounds was determined by the ability of test compounds to block dopamine-stimulated [^35S]-GTPγS binding to cell membranes from D2s stably-transfected CHO cells.

[3] = tested on: rat plasma prolactin levels; assay: Prolactin assay (plasma prolactin by ELISA); assay type: in vivo; details: male Sprague Dawley rats, s.c., one-hour post dose
Source text: As discussed above, hyperprolactinemia is a side effect that can be observed following administration of D2 antagonists. In contrast, administration of D2 agonists to human subjects results in large reductions in prolactin levels in blood (hypoprolactinemia).
Male Sprague Dawley rats were subcutaneously administered with vehicle or test compounds. Trunk blood was collected one-hour post dose and plasma evaluated by an ELISA assay to determine prolactin levels.

Male Long-Evans rats = assay: Conditioned Avoidance Responding (CAR) assay; assay type: in vivo, rat; details: for motor impairment in CAR (shock escapes): dose not stated; for efficacy in CAR (shock avoidance): rats, dosed 60 min prior to testing
Protocol: Male Long-Evans rats were trained to traverse to the opposite side of a standard shuttle cage following presentation of an auditory and visual stimulus in order to avoid delivery of electric shock to the floor of the cage. Daily sessions consisted of up to 80 trials. If shock was delivered, animals always had the opportunity to escape the shock by traversing to the opposite side of the cage. Drug was administered (via s.c. or p.o. route) 60 min prior to testing and the percentage of trials in which shock was avoided and escaped was recorded.

Sprague Dawley rats = assay: Catalepsy assay, rats; assay type: in vivo, rat
Protocol: as §1

Sequence of D2S receptor (P14416 1-414 isoform P14416-2): as above

Structure (SMILES) | MED, reversal of LMA [1] | Ki (D2S receptor) | catalepsy (CF-1 male mice; 30 μmol/kg) | IC50 [2] | no observable effect level (NOEL) on plasma prolactin [3] | motor impairment in CAR (shock escapes) (Male Long-Evans rats) | efficacy in CAR (shock avoidance) (Male Long-Evans rats) | catalepsy (Sprague Dawley rats) | catalepsy (CF-1 male mice; positive control)
CCCN[C@@H]1Cc2cc3nc(N)sc3cc2C1 [Compound C3] | 10 µmol/kg | 115 nM | exhibited catalepsy | 437 nM | 10 µmol/kg | exhibited motor impairment | effective | – | –
O=C(CCCN1CCC(O)(c2ccc(Cl)cc2)CC1)c1ccc(F)cc1 [Haloperidol] | – | – | – | – | – | exhibited motor impairment | effective | induced catalepsy | induced catalepsy
CN[C@@H]1Cc2cc3nc(N)sc3cc2C1 | – | 151 nM | – | 417 nM | – | – | – | – | –
O=C1CCc2ccc(OCCCCN3CCN(c4cccc(Cl)c4Cl)CC3)cc2N1 [Aripiprazole] | – | – | – | – | 2.2 µmol/kg | exhibited motor impairment | effective | – | –
CCN(CC)[C@@H]1Cc2cc3nc(N)sc3cc2C1 | – | 21.9 nM | – | 74.1 nM | – | – | – | – | –
Cc1nc2n(c(=O)c1CCN1CCC(c3noc4cc(F)ccc34)CC1)CCCC2 [Risperidone] | – | – | – | – | 0.07 µmol/kg | – | – | – | –
